Test results: article PMC11893401, “Pharmacokinetics and pharmacodynamics of insulin lispro 25 versus the original preparation (Humalog®25) in Chinese healthy male volunteers” (Frontiers in Pharmacology, 2025)

Conditions: in vivo
Description: Tolerability and safety were assessed by closely monitoring blood glucose levels and conducting other tests. All adverse events and severe adverse events (SAEs) were evaluated.
The safety of both formulations was evaluated through the assessment of laboratory examinations, 12-lead electrocardiogram, and vital signs.

| Substance | Infusion site swelling |
| --- | --- |
| mixed protamine zinc recombinant human insulin lispro injection [listing 1 of 2 here] | 1(2.0) Number of Subjects(%) |
| mixed protamine zinc recombinant human insulin lispro injection [listing 2 of 2 here] | 0 Number of Subjects(%) |
